Marks after values point to notes of the source that are not given here. Where no end group is shown, it is not given here. Moiety B = not defined here
Experiments:
[1] = tested on: db/db mice (diabetic mouse model); assay: Separate db/db diabetic mouse study, q2d*15 up to day 28, recovery period day 29 to day 45; assay type: in vivo; conditions: for Blood Glucose AUC (Day 30-37) % Change vs Control / Blood Glucose AUC (Day 30-37) (mg/dL*days) Mean / Blood Glucose AUC (Day 38-45) % Change vs Control / Blood Glucose AUC (Day 38-45) (mg/dL*days) Mean: recovery period
Protocol: The study was performed in similar manner as above on diabetic mouse model. The animals were divided into three treatment groups—a diabetic control group, a test group and a semaglutide treatment group. The representative compounds of the present disclosure, Compound 1, Compound 13 and Compound 16, were injected subcutaneously at 3.04 or 6.078 nM dose (every alternate day up to day 28 (q2d*15). The same dosage regimen was administered in semaglutide treatment group. Measurements of blood glucose levels and body weight were done daily. % HbA1c, Insulin was measured on Day 0, day 14 and day 29. Cumulative food intake and body weight change was calculated on day 14 and 29. % HbA1c, Insulin data was analyzed by two way ANOVA followed by Bonferroni's posttests using PRISM (Graph Pad version 5.03). Whereas Blood Glucose AUC, Body weight change and Cumulative food intake data was analyzed by one way ANOVA followed by Bonferroni's posttests using PRISM (Graph Pad version 5.03). From day 29 to day 45, animals were kept on recovery period during which no drug treatment was given. Blood Glucose and Body weight was measured during this period. On day 45, Body weight Changes, % HbA1c, Insulin was measured.

SD rats = assay: Oral glucose tolerance test (OGTT) in rats; single injection; 1 mg/kg; assay type: in vivo; design: Change in AUC (mg/dL*min): unit not given here; conditions: for Blood Glucose AUC (mg/dL*min) Mean: Exp. 1; for Change in AUC (mg/dL*min): Exp. 1, vs control group
Protocol: (§1) Animals were divided into three groups—a normal control group, a test group and a third semaglutide group, with 4 animals in each group. The animals were fasted for 12 hours before initiation of OGTT. To the test group animals, the Compound 1 was injected subcutaneously at 1 mg/kg dose. To the semaglutide group, a dose of 1 mg/kg was injected subcutaneously. After 22 hrs, 166 hrs and 334 hrs of subcutaneous injection of test drug or semaglutide, blood glucose was measured with blood glucose meter (time 0 measurements). All the animals were then given 2 g/kg of glucose solution orally. Blood glucose was measured at 20, 40, 60, 90 and 120 minutes following glucose challenge. Body weight and food intake was recorded. Blood glucose data was analyzed using Two way ANOVA followed by Bonferroni posttests using PRISM (Graph Pad version 5.03). Data of Blood glucose AUC0-120 min, was analyzed using t test.
as §1, with “animals,” for “animals, the”, “1, Compound 13 and Compound 16 were” for “1 was”, “compound” for “drug”

[2] = Food intake and body weight recorded in the rat OGTT study; assay type: in vivo, rats; conditions: 1 mg/Kg; for Body Weight Change (%) Mean / Food Consumption (g) Mean: Exp. 1
Protocol: as §1
as §1, with “animals,” for “animals, the”, “1, Compound 13 and Compound 16 were” for “1 was”, “compound” for “drug”

[3] = earlier dose 3.04 nM (3.4 nM given for Compound 16)
[4] = recovery study, day 45, earlier dose 3.04 nM
[5] = recovery study, day 45, earlier dose 6.078 nM (6.0788 nM given for Compound 13)
[6] = OGTT, 1 mg/Kg dose, after 24 hrs

Compound 13: SEQ ID NO: 05, acylated with Moiety C (HXXXGTFTSDVSSYLXGQAAXEFXAWLVRGRGXX; lipidated side chain; (2)..(2) Xaa = Aib; (3)..(3) Xaa = absent.; (4)..(4) Xaa = Glu.; (16)..(16) Xaa = Glu.; (21)..(21) Lys is substituted; (24)..(24) Xaa is Ile.; (33)..(33) Xaa is Leu.; (34)..(34) Xaa is absent.)
Blood Glucose AUC (Day 0-29) % Change Vs Control ([1]; 3.04 nM, q2d*15): −43.86%
Blood Glucose AUC (Day 0-29) (mg/dL*days) Mean ([1]; 3.04 nM, q2d*15): 9515.4*** mg/dL*days
Body Weight Change Day 29, % Change vs Day 0 Mean ([1]; 3.04 nM, q2d*15): 1.2%
Cumulative Food Intake (g) Day 0-29 Mean ([1]; 3.04 nM, q2d*15): 75.2 g
Blood Glucose AUC (Day 0-29) % Change Vs Control ([1]; 6.078 nM, q2d*15): −50.13%
Blood Glucose AUC (Day 0-29) (mg/dL*days) Mean ([1]; 6.078 nM, q2d*15): 8451.7***## mg/dL*days
Body Weight Change Day 29, % Change vs Day 0 Mean ([1]; 6.078 nM, q2d*15): −1.1%
Cumulative Food Intake (g) Day 0-29 Mean ([1]; 6.078 nM, q2d*15): 70.4 g
% HbA1C Mean ([1]; Day 0, 3.04 nM, q2d*15): 7.7%
Insulin (ng/mL) Mean ([1]; Day 0, 3.04 nM, q2d*15): 21.7 ng/mL
% HbA1C Mean ([1]; Day 0, 6.078 nM, q2d*15): 7.83%
Insulin (ng/mL) Mean ([1]; Day 0, 6.078 nM, q2d*15): 26.2 ng/mL
% HbA1C Mean ([1]; Day 14, 3.04 nM, q2d*15): 6.6* %
Insulin (ng/mL) Mean ([1]; Day 14, 3.04 nM, q2d*15): 41.8 ng/mL
% HbA1C Mean ([1]; Day 14, 6.078 nM, q2d*15): 6.00 *** %
Insulin (ng/mL) Mean ([1]; Day 14, 6.078 nM, q2d*15): 61.2*** ng/mL
% HbA1C Mean ([1]; Day 29, 3.04 nM, q2d*15): 6.4 *** %
Insulin (ng/mL) Mean ([1]; Day 29, 3.04 nM, q2d*15): 54.4** ng/mL
% HbA1C Mean ([1]; Day 29, 6.078 nM, q2d*15): 5.64 *** %
Insulin (ng/mL) Mean ([1]; Day 29, 6.078 nM, q2d*15): 59.4*** ng/mL
HbA1c, blood glucose, food consumption and body weight vs control ([1]; about 3 nM and 6 nM dose): significant reduction
Blood Glucose AUC (Day 30-37) % Change vs Control [1, 3]: −27.93%
Blood Glucose AUC (Day 30-37) (mg/dL*days) Mean [1, 3]: 2588.7** mg/dL*days
Blood Glucose AUC (Day 38-45) % Change vs Control [1, 3]: −5.57%
Blood Glucose AUC (Day 38-45) (mg/dL*days) Mean [1, 3]: 3401.0 mg·days/dL
Blood Glucose AUC (Day 30-37) % Change vs Control ([1]; earlier dose 6.078 nM): −19.94%
Blood Glucose AUC (Day 30-37) (mg/dL*days) Mean ([1]; earlier dose 6.078 nM): 2875.7 mg·days/dL
Blood Glucose AUC (Day 38-45) % Change vs Control ([1]; earlier dose 6.078 nM): −6.68%
Blood Glucose AUC (Day 38-45) (mg/dL*days) Mean ([1]; earlier dose 6.078 nM): 3361.0 mg·days/dL
% HbA1C Mean [1, 4]: 7.5%
Delta HbA1C vs. DC [1, 4]: −1.0
Insulin (ng/mL) Mean [1, 4]: 31.2 ng/mL
% HbA1C Mean [1, 5]: 7.3%
Delta HbA1C vs. DC [1, 5]: −1.2
Insulin (ng/mL) Mean [1, 5]: 34.3 ng/mL
Body Weight % Change vs Day 45 Mean ([1]; recovery study, earlier dose 3.04 nM): 6.6%
Body Weight % Change vs Day 45 Mean ([1]; recovery study, earlier dose 6.078 nM (6.0788 nM given for Compound 13)): 5.5%
Blood Glucose AUC (mg/dL*min) Mean (SD rats; OGTT, 1 mg/Kg, 22 hr): 2795.0 mg·min/dL
Change in AUC (mg/dL*min) (SD rats; OGTT, 1 mg/Kg, 22 hr): −81.2
Blood Glucose AUC (mg/dL*min) Mean (SD rats; OGTT, 1 mg/Kg, 168 hr): 6950.0 mg·min/dL
Change in AUC (mg/dL*min) (SD rats; OGTT, 1 mg/Kg, 168 hr): −59.5
Blood Glucose AUC (mg/dL*min) Mean (SD rats; OGTT, 1 mg/Kg, 336 hr): 11368.0 mg·min/dL
Change in AUC (mg/dL*min) (SD rats; OGTT, 1 mg/Kg, 336 hr): −31.6
reduction in blood glucose AUC (SD rats; after 168 hrs of injection, 1 mg/kg): about 60%
Body Weight Change (%) Mean ([2]; 48 h): −10.2%
Food Consumption (g) Mean ([2]; 48 h): 8.4 g
Body Weight Change (%) Mean ([2]; 154 h): 4.5%
Food Consumption (g) Mean ([2]; 154 h): 62.3 g
Body Weight Change (%) Mean ([2]; 324 h): 8.2%
Food Consumption (g) Mean ([2]; 324 h): 82.44 g
food consumed vs animals administered with semaglutide ([2]; text on Table 8): consumed significantly less food

Compound 6: SEQ ID NO: 10, Moiety B; differs from liraglutide in having an additional Leu at 32nd position (HAEGTFTSDVSSYLEGQAAK(Moiety B)EFIAWLVRGRGL-OH; reading uncertain)
% Glucose Reduction (Blood Glucose AUC0-120 min) (SD rats; [6]): 75.8%
Comp/std Liraglutide (ratio of % glucose reduction) (SD rats; [6]): 1.83
blood glucose lowering effect vs liraglutide (SD rats; OGTT, 1 mg/Kg, at 24 hrs): significantly higher than liraglutide
